Experimental data as given in patent US8431565B2 (priority 2007, dated 2013).

Biological target: T1, rat CB2 receptor (rCB2) (Rattus norvegicus, UniProt Q9QZN9)
T1 sequence (Q9QZN9 1-360): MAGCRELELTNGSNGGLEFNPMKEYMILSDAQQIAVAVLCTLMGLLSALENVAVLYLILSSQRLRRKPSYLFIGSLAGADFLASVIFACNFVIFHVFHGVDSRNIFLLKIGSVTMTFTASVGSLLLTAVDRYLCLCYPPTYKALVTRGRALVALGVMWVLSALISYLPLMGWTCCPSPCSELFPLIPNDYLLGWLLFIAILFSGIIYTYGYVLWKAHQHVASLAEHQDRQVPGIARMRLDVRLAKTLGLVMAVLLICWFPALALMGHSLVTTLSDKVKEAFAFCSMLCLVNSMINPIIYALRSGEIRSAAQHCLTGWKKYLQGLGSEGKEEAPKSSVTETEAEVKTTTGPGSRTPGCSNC

For `C[C@@H](NC(=O)c1nc(-c2ccccc2)n2c1CN(C(=O)C1CC1)CC2)C1CCCCC1` [Compound 132, (R)-N-(1-cyclohexylethyl)-7-(cyclopropanecarbonyl)-3-phenyl-5,6,7,8-tetrahydroimidazo[1,5-a]pyrazine-1-carboxamide], the EC50 was 10 to 100 nM.
`CNC(=O)[C@@H](NC(=O)c1nc(-c2ccccc2)n2c1CN(CC(C)C)CC2)C(C)(C)C` [Compound 148, (S)-N-(3,3-dimethyl-1-(methylamino)-1-oxobutan-2-yl)-7-isobutyl-3-phenyl-5,6,7,8-tetrahydroimidazo[1,5-a]pyrazine-1-carboxamide] showed an EC50 of 10 to 100 nM.
In the case of `CC(C)CN1CCn2c(-c3ccccc3)nc(C(=O)NCC(C)(C)C)c2C1` [Compound 58, 7-isobutyl-N-neopentyl-3-phenyl-5,6,7,8-tetrahydroimidazo[1,5-a]pyrazine-1-carboxamide], the EC50 is reported as 10 to 100 nM.
For `CNC(=O)[C@@H](NC(=O)c1nc(-c2ccsc2)n2c1CN(CC1CC1)CC2)C(C)(C)C` [Compound 74, (S)-7-(cyclopropylmethyl)-N-(3,3-dimethyl-1-(methylamino)-1-oxobutan-2-yl)-3-(thiophen-3-yl)-5,6,7,8-tetrahydroimidazo[1,5-a]pyrazine-1-carboxamide], the EC50 was 10 to 100 nM.
With `CNC(=O)[C@@H](NC(=O)c1nc(-c2cc(Cl)ccc2F)n2c1CN(C)CC2)C(C)(C)C` [Compound 246, (S)-3-(5-chloro-2-fluorophenyl)-N-(3,3-dimethyl-1-(methylamino)-1-oxobutan-2-yl)-7-methyl-5,6,7,8-tetrahydroimidazo[1,5-a]pyrazine-1-carboxamide] the EC50 was 10 to 100 nM.
In the case of `CNC(=O)[C@@H](NC(=O)c1nc(-c2ccccc2)n2c1CN(C(C)C)CC2)C(C)(C)C` [Compound 85, (S)-N-(3,3-dimethyl-1-(methylamino)-1-oxobutan-2-yl)-7-isopropyl-3-phenyl-5,6,7,8-tetrahydroimidazo[1,5-a]pyrazine-1-carboxamide], the EC50 is reported as 10 to 100 nM.
Compound `CNC(=O)[C@@H](NC(=O)c1nc(-c2ccc(Cl)cc2F)n2c1CN(CC(C)C)CCC2)C(C)(C)C` [Compound 322, (S)-3-(4-chloro-2-fluorophenyl)-N-(3,3-dimethyl-1-(methylamino)-1-oxobutan-2-yl)-8-isobutyl-6,7,8,9-tetrahydro-5H-imidazo[1,5-a][1,4]diazepine-1-carboxamide] has an EC50 of 10 to 100 nM.
`Cc1ccc(-c2nc(C(=O)N[C@H](c3nc(C)no3)C(C)(C)C)c3n2CCCN(C(C)C)C3)c(F)c1` [Compound 523, (S)-N-(2,2-dimethyl-1-(3-methyl-1,2,4-oxadiazol-5-yl)propyl)-3-(2-fluoro-4-methylphenyl)-8-isopropyl-6,7,8,9-tetrahydro-5H-imidazo[1,5-a][1,4]diazepine-1-carboxamide] gave an EC50 of 10 to 100 nM.
In the case of `CC12CCC(C1)C(C)(C)C2NC(=O)c1nc(-c2ccccc2)n2c1CN(CCO)CC2` (stereo not shown) [Compound 143, 7-(2-hydroxyethyl)-3-phenyl-N-(1,3,3-trimethylbicyclo[2.2.1]heptan-2-yl)-5,6,7,8-tetrahydroimidazo[1,5-a]pyrazine-1-carboxamide], the EC50 is reported as 10 to 100 nM.
`CC(C)(C)OC(=O)N1CCn2c(-c3ccccc3)nc(C(=O)NC3C4(C)CCC(C4)C3(C)C)c2C1` (stereo not shown) [Compound 30, tert-butyl 3-phenyl-1-(1,3,3-trimethylbicyclo[2.2.1]heptan-2-ylcarbamoyl)-5,6-dihydroimidazo[1,5-a]pyrazine-7(8H)-carboxylate] showed an EC50 of 10 to 100 nM.
With `Cc1noc([C@@H](NC(=O)c2nc(-c3ccccc3)n3c2CN(C)CC3)C(C)(C)C)n1` [Compound 87, (S)-N-(2,2-dimethyl-1-(3-methyl-1,2,4-oxadiazol-5-yl)propyl)-7-methyl-3-phenyl-5,6,7,8-tetrahydroimidazo[1,5-a]pyrazine-1-carboxamide] the EC50 was 10 to 100 nM.
For `COC(=O)N1CCn2c(-c3ccc(Cl)cc3)nc(C(=O)N[C@H](CO)C(C)(C)C)c2C1` [Compound 184, (S)-methyl 3-(4-chlorophenyl)-1-(1-hydroxy-3,3-dimethylbutan-2-ylcarbamoyl)-5,6-dihydroimidazo[1,5-a]pyrazine-7(8H)-carboxylate], the EC50 was 10 to 100 nM.
With `CC(C)CN1CCn2c(-c3ccccc3)nc(C(=O)N[C@H](C)C(C)(C)C)c2C1` [Compound 52, (R)-N-(3,3-dimethylbutan-2-yl)-7-isobutyl-3-phenyl-5,6,7,8-tetrahydrimidazo[1,5-a]pyrazine-1-carboxamide] the EC50 was 0.1 to 10 nM.
`CC(C)CN1CCn2c(-c3ccccc3)nc(C(=O)NC3C4(C)CCC(C4)C3(C)C)c2C1` (stereo not shown) [Compound 142, 7-isobutyl-3-phenyl-N-(1,3,3-trimethylbicyclo[2.2.1]heptan-2-yl)-5,6,7,8-tetrahydroimidazo[1,5-a]pyrazine-1-carboxamide] was tested, and the EC50 was 10 to 100 nM.
Compound `CC(C)CN1CCn2c(-c3ccccc3)nc(C(=O)N[C@H](CO)C(C)(C)C)c2C1` [Compound 60, (S)-N-(1-hydroxy-3,3-dimethylbutan-2-yl)-7-isobutyl-3-phenyl-5,6,7,8-tetrahydroimidazo[1,5-a]pyrazine-1-carboxamide] has an EC50 of 10 to 100 nM.
`CNC(=O)[C@@H](NC(=O)c1nc(-c2ccccc2)n2c1CN(C1CC1)CC2)C(C)(C)C` [Compound 197, (S)-7-cyclopropyl-N-(3,3-dimethyl-1-(methylamino)-1-oxobutan-2-yl)-3-phenyl-5,6,7,8-tetrahydroimidazo[1,5-a]pyrazine-1-carboxamide] was tested, and the EC50 was 10 to 100 nM.
In the case of `CC(C)(C)OC(=O)N1CCn2c(-c3ccc(Cl)cc3)nc(C(=O)N[C@H](CO)C(C)(C)C)c2C1` (stereo in doubt) [Compound 34, tert-butyl 3-(4-chlorophenyl)-1-(1-hydroxy-3,3-dimethylbutan-2-ylcarbamoyl)-5,6-dihydroimidazo[1,5-a]pyrazine-7(8H)-carboxylate], the EC50 is reported as 10 to 100 nM.
Work on `CCCN1CCn2c(-c3ccccc3)nc(C(=O)Nc3ccccc3)c2C1` [Compound 154, N,3-diphenyl-7-propyl-5,6,7,8-tetrahydroimidazo[1,5-a]pyrazine-1-carboxamide] yielded an EC50 of 10 to 100 nM.
For `CNC(=O)[C@@H](NC(=O)c1nc(-c2ccccc2)n2c1CN(CCC(C)(C)C)CC2)C(C)(C)C` [Compound 54, (S)-N-(3,3-dimethyl-1-(methylamino)-1-oxobutan-2-yl)-7-(3,3-dimethylbutyl)-3-phenyl-5,6,7,8-tetrahydroimidazo[1,5-a]pyrazine-1-carboxamide], the EC50 was 10 to 100 nM.
`CNC(=O)[C@@H](NC(=O)c1nc(-c2ccccc2)n2c1CN(S(=O)(=O)c1ccc(Cl)cc1)CC2)C(C)(C)C` [Compound 106, (S)-7-(4-chlorophenylsulfonyl)-N-(3,3-dimethyl-1-(methylamino)-1-oxobutan-2-yl)-3-phenyl-5,6,7,8-tetrahydroimidazo[1,5-a]pyrazine-1-carboxamide] was tested, and the EC50 was 10 to 100 nM.
With `CNC(=O)[C@@H](NC(=O)c1nc(-c2cccc(C(F)(F)F)c2)n2c1CN(C)CCC2)C(C)(C)C` [Compound 438, (S)-N-(3,3-dimethyl-1-(methylamino)-1-oxobutan-2-yl)-8-methyl-3-(3-(trifluoromethyl)phenyl)-6,7,8,9-tetrahydro-5H-imidazo[1,5-a][1,4]diazepine-1-carboxamide] the EC50 was 10 to 100 nM.
Work on `C[C@@H](NC(=O)c1nc(-c2ccccc2)n2c1CN(C(=O)C(C)(C)C)CC2)C1CCCCC1` [Compound 133, (R)-N-(1-cyclohexylethyl)-3-phenyl-7-pivaloyl-5,6,7,8-tetrahydroimidazo[1,5-a]pyrazine-1-carboxamide] yielded an EC50 of 10 to 100 nM.
